{
  "source": "ChEMBL document CHEMBL4017502",
  "about": "“Discovery and Characterization of (R)-6-Neopentyl-2-(pyridin-2-ylmethoxy)-6,7-dihydropyrimido[2,1-c][1,4]oxazin-4(9H)-one (PF-06462894), an Alkyne-Lacking Metabotropic Glutamate Receptor 5 Negative Allosteric Modulator Profiled in both Rat and Nonhuman Primates” (J Med Chem, 2017)",
  "key": {"[1]": {"assay": "Apparent permeability across apical to basolateral side in RRCK cells at 1 uM after 2 hrs by LC/MS-MS analysis", "format": "ADME, cell-based, Canis lupus familiaris, MDCKII-LE", "details": "dog, MDCK"}, "Plasma [2]": {"tested_on": "Plasma", "assay": "Drug metabolism in cynomolgus monkey plasma assessed as metabolite formation at 150 mg/kg, administered via oral gavage measured on day 1 by UV-LC-MS/MS analysis", "format": "ADME, organism-based, Macaca fascicularis", "details": "in vivo"}, "Plasma [3]": {"tested_on": "Plasma", "assay": "Drug metabolism in cynomolgus monkey plasma assessed as O-dealkylated metabolite formation at 150 mg/kg, administered via oral gavage measured on day 12 by UV-LC-MS/MS analysis", "format": "ADME, organism-based, Macaca fascicularis", "details": "in vivo"}, "[4]": {"assay": "AUC (0 to 24 hrs) at steady state in Crl:CD(SD) rat at 150 mg/kg/day, administered via oral gavage for 14 consecutive days measured on day 13", "format": "ADME, organism-based", "design": "time < 24 hr, dose 150 mg/kg/day, route oral", "details": "in vivo"}, "[5]": {"assay": "Volume of distribution at steady state in Sprague-Dawley rat at 1 mg/kg, iv via single bolus administration", "format": "ADME, organism-based", "details": "in vivo, read-out: Vdss"}, "[6]": {"assay": "Volume of distribution at steady state in 6 MPTP-treated dyskinetic PD-LID rhesus monkey at 2 mg/kg administered BID", "format": "ADME, organism-based, Macaca mulatta", "details": "in vivo, read-out: Vdss"}, "Plasma [7]": {"tested_on": "Plasma", "assay": "Drug metabolism in Crl:CD(SD) rat plasma assessed as metabolite formation at 150 mg/kg, administered via oral gavage measured on day 1 by UV-LC-MS/MS analysis", "format": "ADME, organism-based", "details": "in vivo"}, "[8]": {"assay": "Oral bioavailability cynomolgus monkey […] at 30 mg/kg", "format": "ADME, organism-based, Macaca fascicularis", "details": "in vivo"}, "[9]": {"assay": "Volume of distribution at steady state in cynomolgus monkey at 1 mg/kg, iv via single bolus administration", "format": "ADME, organism-based, Macaca fascicularis", "details": "in vivo, read-out: Vdss"}, "[10]": {"assay": "AUC (0 to 24 hrs) at steady state in cynomolgus monkey at 600 mg/kg/day, administered via oral gavage for 14 consecutive days measured on day 13", "format": "ADME, organism-based, Macaca fascicularis", "design": "dose 600 mg/kg/day, time < 24 hr, route oral", "details": "in vivo"}, "[11]": {"assay": "Bioavailability in 6 MPTP-treated dyskinetic PD-LID rhesus monkey model at 2 mg/kg administered BID", "format": "ADME, organism-based, Macaca mulatta", "details": "in vivo"}, "Plasma [12]": {"tested_on": "Plasma", "assay": "Drug metabolism in cynomolgus monkey plasma assessed as N-oxygenated metabolite formation at 150 mg/kg, administered via oral gavage measured on day 12 by UV-LC-MS/MS analysis", "format": "ADME, organism-based, Macaca fascicularis", "details": "in vivo"}, "[13]": {"assay": "Ratio of free AUC (0 to 4 hrs) in Sprague-Dawley rat brain to plasma at 0.32 to 1 mg/kg, sc", "format": "ADME, organism-based"}, "[14]": {"assay": "AUC (0 to 24 hrs) at steady state in cynomolgus monkey at 150 mg/kg/day, administered via oral gavage for 14 consecutive days measured on day 13", "format": "ADME, organism-based, Macaca fascicularis", "design": "time < 24 hr, dose 150 mg/kg/day, route oral", "details": "in vivo"}, "Plasma [15]": {"tested_on": "Plasma", "assay": "Drug metabolism in cynomolgus monkey plasma assessed as monohydroxylated metabolite formation at 150 mg/kg, administered via oral gavage measured on day 12 by UV-LC-MS/MS analysis", "format": "ADME, organism-based, Macaca fascicularis", "details": "in vivo"}, "[16]": {"assay": "Ratio of unbound drug level in cynomolgus monkey brain to plasma at 600 mg/kg, po measured 7.65 hrs post dose on day 1", "format": "ADME, organism-based, Macaca fascicularis", "details": "read-out: K(p,uu,brain)"}, "[17]": {"assay": "AUC (0 to 24 hrs) at steady state in cynomolgus monkey at 50 mg/kg/day, administered via oral gavage for 14 consecutive days measured on day 13", "format": "ADME, organism-based, Macaca fascicularis", "design": "time < 24 hr, dose 50 mg/kg/day, route oral", "details": "in vivo"}, "[18]": {"assay": "AUC (0 to 24 hrs) at steady state in Crl:CD(SD) rat at 50 mg/kg/day, administered via oral gavage for 14 consecutive days measured on day 13", "format": "ADME, organism-based", "design": "dose 50 mg/kg/day, time < 24 hr, route oral", "details": "in vivo"}, "Plasma [19]": {"tested_on": "Plasma", "assay": "Drug metabolism in cynomolgus monkey plasma assessed as glucuronidated metabolite formation at 150 mg/kg, administered via oral gavage measured on day 12 by UV-LC-MS/MS analysis", "format": "ADME, organism-based, Macaca fascicularis", "details": "in vivo"}, "[20]": {"assay": "Oral bioavailability in Sprague-Dawley rat at 25 mg/kg", "format": "ADME, organism-based", "details": "in vivo"}, "[21]": {"assay": "AUC (0 to 24 hrs) at steady state in Crl:CD(SD) rat at 500 mg/kg/day, administered via oral gavage for 14 consecutive days measured on day 13", "format": "ADME, organism-based", "design": "dose 500 mg/kg/day, time < 24 hr, route oral", "details": "in vivo"}, "Plasma [22]": {"tested_on": "Plasma", "assay": "Plasma concentration in human", "format": "ADME, cell-free"}},
  "data": [
    {"smiles": "O=c1cc(SCc2ccccn2)nc2ccccn12", "values": [
      {"measurement": "Papp A→B at 2 h, 1 µM", "setting": "[1]", "result": 26, "unit": "×10⁻⁶ cm/s"}
    ]},
    {"smiles": "CC(C)(C)C[C@@H]1COCc2nc(OCc3ccccn3)cc(=O)n21", "values": [
      {"measurement": "Drug metabolism", "setting": "Plasma [2]", "result": "Metabolite_Detected"},
      {"measurement": "Drug metabolism", "setting": "Plasma [3]", "result": "Metabolite_Detected"},
      {"measurement": "AUC at 24 h", "setting": "[4]", "result": 117000, "unit": "ng·h/mL"},
      {"measurement": "Vd", "setting": "[5]", "result": 1.29, "unit": "L/kg"},
      {"measurement": "Vd", "setting": "[6]", "result": 1, "unit": "L/kg"},
      {"measurement": "Drug metabolism", "setting": "Plasma [7]", "result": "Metabolite_Detected"},
      {"measurement": "bioavailability", "setting": "[8]", "result": 11, "unit": "%"},
      {"measurement": "Vd", "setting": "[9]", "result": 1.24, "unit": "L/kg"},
      {"measurement": "AUC at 24 h", "setting": "[10]", "result": 41500, "unit": "ng·h/mL"},
      {"measurement": "bioavailability", "setting": "[11]", "result": 91, "unit": "%"},
      {"measurement": "Drug metabolism", "setting": "Plasma [12]", "result": "Metabolite_Detected"},
      {"measurement": "Kp uu", "setting": "[13]", "result": 1.22},
      {"measurement": "Papp A→B at 2 h, 1 µM", "setting": "[1]", "result": 29, "unit": "×10⁻⁶ cm/s"},
      {"measurement": "AUC at 24 h", "setting": "[14]", "result": 45400, "unit": "ng·h/mL"},
      {"measurement": "Drug metabolism", "setting": "Plasma [15]", "result": "Metabolite_Detected"},
      {"measurement": "Kp uu at 7.65 h", "setting": "[16]", "result": 0.89},
      {"measurement": "AUC at 24 h", "setting": "[17]", "result": 3680, "unit": "ng·h/mL"},
      {"measurement": "AUC at 24 h", "setting": "[18]", "result": 23200, "unit": "ng·h/mL"},
      {"measurement": "Drug metabolism", "setting": "Plasma [19]", "result": "Metabolite_Detected"},
      {"measurement": "bioavailability", "setting": "[20]", "result": 20, "unit": "%"},
      {"measurement": "AUC at 24 h", "setting": "[21]", "result": 313000, "unit": "ng·h/mL"},
      {"measurement": "Cp", "setting": "Plasma [22]", "result": 31, "unit": "ng/mL"}
    ]},
    {"smiles": "N#Cc1cccc(COc2cc(=O)n3c(n2)COC[C@H]3Cc2ccccc2)c1", "values": [
      {"measurement": "Papp A→B at 2 h, 1 µM", "setting": "[1]", "result": 26, "unit": "×10⁻⁶ cm/s"}
    ]},
    {"smiles": "O=c1cc(OCc2cccc(Cl)c2)nc2n1[C@H](Cc1ccccc1)COC2", "values": [
      {"measurement": "Papp A→B at 2 h, 1 µM", "setting": "[1]", "result": 4, "unit": "×10⁻⁶ cm/s"}
    ]},
    {"smiles": "O=c1cc(OCCC2CC2)nc2n1[C@H](Cc1ccccc1)COC2", "values": [
      {"measurement": "Papp A→B at 2 h, 1 µM", "setting": "[1]", "result": 22, "unit": "×10⁻⁶ cm/s"}
    ]},
    {"smiles": "Cc1cccc(COc2cc(=O)n3c(n2)COC[C@H]3Cc2ccccc2)n1", "values": [
      {"measurement": "Papp A→B at 2 h, 1 µM", "setting": "[1]", "result": 22, "unit": "×10⁻⁶ cm/s"}
    ]},
    {"smiles": "O=c1cc(OCc2cccc(Cl)c2)nc2ccc(Oc3cccnc3)cn12", "values": [
      {"measurement": "Papp A→B at 2 h, 1 µM", "setting": "[1]", "result": 7, "unit": "×10⁻⁶ cm/s"}
    ]},
    {"smiles": "Cc1csc(COc2cc(=O)n3c(n2)COC[C@H]3Cc2ccccc2)n1", "values": [
      {"measurement": "Papp A→B at 2 h, 1 µM", "setting": "[1]", "result": 26, "unit": "×10⁻⁶ cm/s"}
    ]},
    {"smiles": "O=c1cc(OCc2cccc(Cl)c2)nc2n1CCCC2", "values": [
      {"measurement": "Papp A→B at 2 h, 1 µM", "setting": "[1]", "result": 26, "unit": "×10⁻⁶ cm/s"}
    ]},
    {"smiles": "O=c1cc(OCc2cccc(Cl)c2)nc2ccccn12", "values": [
      {"measurement": "Papp A→B at 2 h, 1 µM", "setting": "[1]", "result": 16, "unit": "×10⁻⁶ cm/s"}
    ]},
    {"smiles": "CC(C)(C)C[C@@H]1COCc2nc(OCc3cccc(C#N)c3)cc(=O)n21", "values": [
      {"measurement": "Papp A→B at 2 h, 1 µM", "setting": "[1]", "result": 25, "unit": "×10⁻⁶ cm/s"}
    ]},
    {"smiles": "CC(C)C[C@@H]1COCc2nc(OCc3cccc(C#N)c3)cc(=O)n21", "values": [
      {"measurement": "Vd", "setting": "[5]", "result": 2.14, "unit": "L/kg"},
      {"measurement": "bioavailability", "setting": "[8]", "result": 43, "unit": "%"},
      {"measurement": "Vd", "setting": "[9]", "result": 2.23, "unit": "L/kg"},
      {"measurement": "Kp uu", "setting": "[13]", "result": 2.19},
      {"measurement": "Papp A→B at 2 h, 1 µM", "setting": "[1]", "result": 28, "unit": "×10⁻⁶ cm/s"},
      {"measurement": "bioavailability", "setting": "[20]", "result": 62, "unit": "%"}
    ]},
    {"smiles": "O=c1cc(OCc2cccc(Cl)c2)nc2n1[C@@H](Cc1ccccc1)COC2", "values": [
      {"measurement": "Papp A→B at 2 h, 1 µM", "setting": "[1]", "result": 4, "unit": "×10⁻⁶ cm/s"}
    ]},
    {"smiles": "Cc1cccc(COc2cc(=O)n3cc(Oc4cccnc4)ccc3n2)n1", "values": [
      {"measurement": "Papp A→B at 2 h, 1 µM", "setting": "[1]", "result": 24, "unit": "×10⁻⁶ cm/s"}
    ]},
    {"smiles": "CC(C)C[C@@H]1COCc2nc(OCc3ccccn3)cc(=O)n21", "values": [
      {"measurement": "Papp A→B at 2 h, 1 µM", "setting": "[1]", "result": 39, "unit": "×10⁻⁶ cm/s"}
    ]},
    {"smiles": "O=c1cc(OCc2ccccn2)nc2n1[C@H](Cc1ccccc1)COC2", "values": [
      {"measurement": "Papp A→B at 2 h, 1 µM", "setting": "[1]", "result": 28, "unit": "×10⁻⁶ cm/s"}
    ]},
    {"smiles": "O=c1cc(OCc2cccc(Cl)c2)nc2n1CCOC2", "values": [
      {"measurement": "Papp A→B at 2 h, 1 µM", "setting": "[1]", "result": 31, "unit": "×10⁻⁶ cm/s"}
    ]}
  ]
}
